PubChem BioAssay (NCI)
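Abbreviation: GI50, concentration required for 50% inhibition of growth. The concentration for full growth arrest is given as TGI.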

Legend:
Test in all cases: inhibition of tumour cell growth, NCI panel, 384-well format
[1] = system: NCI/ADR-RES ovarian
[2] = system: EKVX NSCLC
[3] = system: HL-60(TB) leukemia
[4] = system: A549 NSCLC
[5] = system: DU-145 prostate
[6] = system: IGROV1 ovarian
[7] = system: MCF7 breast
[8] = system: BT-549 breast
[9] = system: T-47D breast
[10] = system: HOP-62 NSCLC
[11] = system: UACC-62 melanoma
[12] = system: NCI-H460 NSCLC
[13] = system: HCT-15 colon
[14] = system: SF-268 CNS
[15] = system: HT29 colon
[16] = system: MDA-MB-231 breast
[17] = system: TK-10 renal
[18] = system: OVCAR-5 ovarian
[19] = system: COLO 205 colon
[20] = system: U251 glioblastoma
[21] = system: MALME-3M melanoma
[22] = system: SN12C renal
[23] = system: UO-31 renal
[24] = system: KM12 colon
[25] = system: HS 578T breast
[26] = system: PC-3 prostate
[27] = system: NCI-H322M lung
[28] = system: RPMI-8226 leukemia
[29] = system: LOX IMVI melanoma
[30] = system: SK-MEL-5 melanoma
[31] = system: CAKI-1 renal
[32] = system: SF-295 CNS
[33] = system: MDA-MB-435 melanoma
[34] = system: MOLT-4 leukemia
[35] = system: K-562 leukemia
[36] = system: CCRF-CEM leukemia
[37] = system: A498 renal
[38] = system: SNB-19 CNS
[39] = system: SF-539 CNS
[40] = system: OVCAR-8 ovarian
[41] = system: NCI-H226 lung
[42] = system: RXF 393 renal
[43] = system: SK-MEL-28 melanoma
[44] = system: OVCAR-3 ovarian
[45] = system: MDA-MB-468 breast
[46] = system: OVCAR-4 ovarian
[47] = system: M14 melanoma
[48] = system: 786-0 renal
[49] = system: UACC-257 melanoma
[50] = system: HCC-2998 colon
[51] = system: HOP-92 NSCLC
[52] = system: SK-OV-3 ovarian
[53] = system: NCI-H23 lung
[54] = system: NCI-H522 lung
[55] = system: ACHN renal
[56] = system: SNB-75 CNS
[57] = system: SW-620 colon
[58] = system: HCT-116 colon

## C[C@@H]1CN(Cc2ccc(F)cc2)[C@@H](C)CN1C(=O)c1cc2c(C(=O)C(=O)N(C)C)cn(C)c2cc1Cl
[1]
  GI50: 18.3 µM
  TGI: 41.6 µM
[2]
  GI50: 15.3 µM
  TGI: 35 µM
[3]
  GI50: 20.7 µM
  TGI: 35.1 µM
[4]
  GI50: 13.8 µM
  TGI: 35.5 µM
[5]
  GI50: 19.1 µM
  TGI: 37.8 µM
[6]
  GI50: 14.2 µM
  TGI: 28.3 µM
[7]
  GI50: 10.8 µM
  TGI: 24.1 µM
[8]
  GI50: 17.7 µM
  TGI: 31.8 µM
[9]
  GI50: 1.99 µM
  TGI: 17.2 µM
[10]
  GI50: 10.8 µM
  TGI: 24.1 µM
[11]
  GI50: 8.17 µM
  TGI: 20.9 µM
[12]
  GI50: 12.7 µM
  TGI: 26.9 µM
[13]
  GI50: 19.8 µM
  TGI: 39.3 µM
[14]
  GI50: 2.33 µM
  TGI: 14.7 µM
[15]
  GI50: 12.7 µM
  TGI: 27 µM
[16]
  GI50: 23.2 µM
  TGI: 61.9 µM
[17]
  GI50: 23.8 µM
  TGI: 52.3 µM
[18]
  GI50: 19.9 µM
  TGI: 52.1 µM
[19]
  GI50: 10.9 µM
  TGI: 23.7 µM
[20]
  GI50: 16.4 µM
  TGI: 30.7 µM
[21]
  GI50: 18.3 µM
  TGI: 32.6 µM
[22]
  GI50: 15.8 µM
  TGI: 31.7 µM
[23]
  GI50: 15.1 µM
  TGI: 29.6 µM
[24]
  GI50: 14.8 µM
  TGI: 29.7 µM
[25]
  GI50: 12.7 µM
  TGI: 26.5 µM
[26]
  GI50: 18.6 µM
  TGI: 35 µM
[27]
  GI50: 17.5 µM
  TGI: 35.3 µM
[28]
  GI50: 12.2 µM
  TGI: 24.7 µM
[29]
  GI50: 14.8 µM
  TGI: 28.5 µM
[30]
  GI50: 7.47 µM
  TGI: 20.5 µM
[31]
  GI50: 15.4 µM
  TGI: 41 µM
[32]
  GI50: 16.4 µM
  TGI: 31.9 µM
[33]
  GI50: 15.5 µM
  TGI: 31.1 µM
[34]
  GI50: 12.9 µM
  TGI: 25.7 µM
[35]
  GI50: 7.01 µM
  TGI: 20.8 µM
[36]
  GI50: 15.3 µM
  TGI: 28.8 µM
[37]
  GI50: 13.6 µM
  TGI: 29.2 µM
[38]
  GI50: 24.1 µM
  TGI: 58.1 µM
[39]
  GI50: 17.2 µM
  TGI: 31.3 µM
[40]
  GI50: 17.9 µM
  TGI: 38.9 µM
[41]
  GI50: 10.3 µM
  TGI: 23.9 µM
[42]
  GI50: 14.9 µM
  TGI: 28.9 µM
[43]
  GI50: 16.1 µM
  TGI: 31.6 µM
[44]
  GI50: 17.8 µM
  TGI: 32.1 µM
[45]
  GI50: 2.8 µM
  TGI: 17.4 µM
[46]
  GI50: 22.4 µM
  TGI: 46.9 µM
[47]
  GI50: 14.1 µM
  TGI: 28.8 µM
[48]
  GI50: 13.6 µM
  TGI: 28.5 µM
[49]
  GI50: 19.7 µM
  TGI: 34.1 µM
[50]
  GI50: 17.1 µM
  TGI: 31.5 µM
[51]
  GI50: 17.1 µM
  TGI: 31.2 µM
[52]
  GI50: 19.6 µM
  TGI: 42.7 µM
[53]
  GI50: 20.1 µM
  TGI: 44.5 µM
[54]
  GI50: 20.5 µM
  TGI: 38.1 µM
[55]
  GI50: 14.4 µM
  TGI: 43 µM
[56]
  GI50: 15.7 µM
  TGI: 33.8 µM
[57]
  GI50: 18 µM
  TGI: 40.9 µM
[58]
  GI50: 16.1 µM
  TGI: 30.5 µM
